Structures are written as SMILES.

The species entered for this test is Cavia porcellus. Nature of the test: Tested for antagonism of the contractile effect on guinea pig ileum preparations. Format: functional. The settings on record: read-out: pA2 (converted).

As to `COc1ccccc1[C@H](C)C(=O)N1C[C@@H]2[C@H](C1)C(c1ccccc1)(c1ccccc1)CC[C@@]2(O)c1ccccc1OC` [DAPITANT], the Kb was 8.91 nM.

(Values after ChEMBL document CHEMBL1127259, “Synthesis of RPR 100893, prototype of a new series of potent and selective non peptide NK1 antagonists : the triarylperhydroisoindolols” (Bioorg Med Chem Lett, 1994).)
